PMC4096218 (Journal of Medicinal Chemistry, 2014)
Values after ≈ are worked out from the molar mass of the structure shown.

How the values were obtained:
[1] = tested on: panel of both Gram-positive and Gram-negative bacteria; type: cell-based; details: for MIC values (range in words): B. anthracis Sterne, MRSA, VRE, L. monocytogenes
[2] = tested on: Bacillus anthracis strain Sterne; test: microbe, parasite or virus in culture; type: cell-based
EcUPPS = target: T1, EcUPPS (Escherichia coli, UniProt P60472); details: inhibitor in EcUPPS X-ray structure 2E98; cited from earlier work
T1 sequence (P60472 1-253): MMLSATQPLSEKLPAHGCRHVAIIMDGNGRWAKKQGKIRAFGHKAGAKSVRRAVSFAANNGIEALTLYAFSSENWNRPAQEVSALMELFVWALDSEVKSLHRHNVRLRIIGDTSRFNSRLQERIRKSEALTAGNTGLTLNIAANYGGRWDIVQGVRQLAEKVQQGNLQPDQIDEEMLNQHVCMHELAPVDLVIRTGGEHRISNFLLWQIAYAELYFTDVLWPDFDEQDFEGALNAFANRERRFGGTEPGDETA

## Cc1cc(Cl)ccc1-c1ccc(/C=C2\SC(=S)N(CC(=O)O)C2=O)o1 [Compound 1]
[1]
  MIC values (range in words): high ng/mL to low μg/mL range
  growth of Gram negatives: did not inhibit the growth of Gram negatives
  growth of Gram positives: inhibited the growth of Gram positives
[2]
  MIC: 1 to 2 µg/mL (≈ 2.54 to 5.08 µM)

## O=P(O)(O)C(O)(Cc1cccc(-c2cccc3c2oc2ccccc23)c1)P(=O)(O)O [BPH-629]
EcUPPS
  IC50: ~300 nM

## O=C(O)CCN1C(=O)/C(=C/c2ccc(-c3ccc(Cl)cc3Cl)o2)SC1=S [Compound 4]
[1]
  MIC values (range in words): high ng/mL to low μg/mL range
  growth of Gram negatives: did not inhibit the growth of Gram negatives
  growth of Gram positives: inhibited the growth of Gram positives
